From a melting point compilation (Tetko et al.; mined from patent text by program, amines drawn as free bases though some values may be those of a salt)

SMILES | melting point
CC(C)c1nc(COCCOC(N)=O)n(Cc2ccccn2)c1Sc1cc(F)cc(F)c1 | 110 to 111 °C
Cc1cc(-c2noc(C)c2-c2ccc(S(N)(=O)=O)c(F)c2)ccc1-c1cscn1 | 159 °C
CC1(C)CON(Cc2ccc(N)cc2Cl)C1=O | 106 to 108 °C
COc1ccccc1N1CCN(CC(O)COc2ccccc2CC(N)=O)CC1 (centres undefined) | 120 to 122 °C
CC(C)CC(NC(=O)C(CS)CC(F)(F)F)C(=O)O (centres undefined) | 78 to 81 °C
CCOCCN(CC1=CCC(NC(C)=O)(Oc2ccccc2)C=C1)C(=O)C(Cl)Cl (centres undefined) | 114 to 116 °C
CNC(=O)c1c(N)cc(Cl)cc1Cl | 159 to 162 °C
CC(C)(C)c1cc(-c2cncn2CCCCl)cc(C(C)(C)C)c1O | 178 to 179 °C
O=C1c2ccccc2CN1CCC#Cc1ccccn1 | 94 to 98 °C
CSc1nc(F)cc(NN)n1 | 153 to 154 °C
O=C(O)C(=O)N1CCC(Cc2ccc(Cl)cc2)CC1 | 147 to 148 °C
O=c1c2cc(Cl)ccc2nc2n1CCN2Cc1ccccc1Cl | 173 to 174 °C
CCCN1CCN(CCCOc2cc3ncc(C#N)c(Nc4cc(OC)c(Cl)cc4Cl)c3cc2OC)CC1 | 97 to 101 °C
Cc1ccc(N2CCN(Cc3n[nH]c4ccccc34)CC2)nc1 | 151 to 153 °C
OCC1OC(n2cnc3c(NCCc4cccs4)ncnc32)C(O)C1O (centres undefined) | 153 to 154 °C
Cc1cc(C2(C(F)(F)F)CC(c3ccc(F)cc3)=NO2)ccc1NC(=O)c1cccc(I)c1C(=O)NC(C)C (centres undefined) | 128 to 130 °C
O=C(O)Cc1ccc(NC(=O)C(COc2ccc(Cl)cc2)NS(=O)(=O)c2ccc(Cl)cc2)cc1 (racemic) | 205 to 207 °C
C1=Cc2ccccc2OC1 | 48 to 51 °C
CCOc1cc2c(Nc3cc(OC)c(Cl)cc3Cl)c(C#N)cnc2cc1OCCC1CCN(C)CC1 | 174 to 176 °C
CCOC(=O)c1cc2ccc3c(c2cc1OCC)OC(n1cccc1)=C(C#N)C3c1cccc([N+](=O)[O-])c1 (centres undefined) | 202 to 203 °C
CCOC(=O)C1=Cc2cc(Cl)cc(Br)c2OC1C(F)(F)F (centres undefined) | 101 to 102 °C
COC(=O)c1cc(I)cc2c(=O)cc[nH]c12 | 75 to 77 °C
Cc1ccnc(CN(C(=O)C(C)Cl)c2ccccc2)n1 (centres undefined) | 110 °C
COC(=O)c1cc(NC=O)c2cc(Cc3ccc(F)cc3)cnc2c1O | 217 to 219 °C
O=C(Nc1ccccc1)C1=C(O)c2ccc3ccccc3c2S(=O)(=O)N1 | 260 to 262 °C

SMILES | melting point
CC(=O)Oc1cnccc1CCCOc1cccnc1Cc1cccc(Br)c1 | 122 to 128 °C
CCOC(=O)CCCCCOc1cc2c(c(Cl)c1Cl)C(=O)C(C)(C1CCCC1)C2 (centres undefined) | 69 to 72 °C
OC1(c2ccc(F)cc2)CCC2(CC1)OCCO2 | 133 to 135 °C
O=C(C1CC1)N1CC[C@H](c2ccccc2)[C@H](O)C1 (relative stereo) | 128 to 129 °C
CC(=O)NCC1CN(c2ccc(N3CCN(c4nc5ccccc5s4)CC3)c(F)c2)C(=O)O1 (centres undefined) | 239 to 240 °C
CN(C(=O)COc1nc(F)ns1)c1ccccc1 | 82 °C
COc1ccc2c(c1OC)CC(c1ccccc1)CC2=O (centres undefined) | 127 to 128 °C
O=S(=O)(Nc1ccc2c(OCc3nc4ccccc4s3)cccc2c1)C(F)(F)F | 190 to 192 °C
NC(=O)N1C(=O)C(C(=O)c2ccoc2)c2ncc(Cl)cc21 (centres undefined) | > 250 °C
COC1C(c2ccccc2)=C(c2ccc(S(C)(=O)=O)cc2)C1(C)C (centres undefined) | 130 to 132 °C
CC(C)CCc1c(-c2ccc(S(N)(=O)=O)cc2)cnn(-c2ccc(F)c(F)c2)c1=O | 171 to 173 °C
NC(=O)c1csc2ccc([N+](=O)[O-])cc12 | 243 to 250 °C
Cc1ccc(S(C)(=O)=O)c(S(=O)(=O)NC(C)(C)C)c1 | 129 to 133 °C
COc1ccccc1OCCCCCOc1ccc(C#N)cc1 | 61 to 63 °C
CCCCc1nc2ccccc2n1Cc1ccc(-c2ccccc2C(=O)O)cc1 | 225 to 227 °C
O=C(NCc1ccc(Cl)cc1)c1cnc2c(F)cc(I)cc2c1O | 268 to 270 °C
COCc1nc(C)c2c(n1)N(Cc1ccc(Br)cc1)C(=O)CC2 | 64 to 66 °C
ClC(=NNc1ccccc1)c1ccc(Cl)cc1Cl | 88.5 to 89.5 °C
CNc1nc(Cl)c(SC)c(N2CCN(c3ccccc3)CC2)n1 | 163 to 164 °C
O=C1Cc2cc(NC(=O)C(=O)N3CCC(Cc4cccc(F)c4)CC3)ccc2N1 | 182 to 184 °C
NC(=O)c1[nH]c2ccccc2c1Sc1ccccc1 | 197 to 198 °C
COC(=O)C(=C(CBr)CBr)N1CC(N2C(=O)c3ccccc3C2=O)C1=O (centres undefined) | 128 to 131 °C
N#Cc1ccc(Oc2cccc(N)c2)cc1C#N | 171 to 172 °C
O=C(Nc1ccc(Cl)cc1)C(CS)Cc1ccccc1 (centres undefined) | 142 °C
Cc1ccc(S(=O)(=O)ON=C(C#N)c2ccccc2)cc1 | 131 to 132 °C

SMILES | melting point
COc1cc(C)nn1-c1ccc(Br)cc1 | 67 to 68 °C
CN(C(=O)CBr)n1cccc1C(=O)c1ccccc1 | 76 to 78 °C
NC(=O)c1cccc(CCN2CC=C(c3c[nH]c(-c4ccc(F)cc4)c3-c3ccncc3)CC2)c1 | 185 to 188 °C
FC(F)(F)Oc1ccc2nc(Cc3cn4ccsc4n3)[nH]c2c1 | 177 to 179 °C
Nc1ncc(-c2ccncn2)c(-c2ccco2)n1 | 222 °C
NCC(=O)SCC(Cc1ccccc1)C(=O)Nc1cccc(C(=O)O)c1 (centres undefined) | 91 to 96 °C
O=C1CN2C(=O)N(c3cc(Cl)cc(Cl)c3)C(=O)C2(Cc2ccc(Br)cc2)C1 (centres undefined) | 85.4 °C
COc1cc2c(=O)cc(C(=O)O)n(C)c2ccc1=O | > 250 °C
Nc1ccc(Cl)c(N=C2NCCN2)c1 | 154 to 155 °C
O=C(N=C1SCCN1Cc1ccc(Cl)nc1)C(F)(F)F | 96 °C
Cc1ccc(-c2cnc(-c3cc(C(F)(F)F)cs3)s2)s1 | 131 to 133 °C
Cn1cc(-c2cc3cccnc3[nH]2)c2cc(C(=O)NC(C)(CO)CO)ccc21 | 180 to 182 °C
O=C(CCC1C(=S)Nc2ccccc21)NCc1ccccc1 (centres undefined) | 114 °C
O=[N+]([O-])c1ccc2c(c1)CN1C(=S)SC[C@@H]1C2 | 182 °C
CCOC(=O)c1ccc(NC(=O)CCc2ccc(C)cc2)cc1 | 154 to 155 °C
CC(=O)Oc1ccc(OC(C)=O)c(-c2ccc(C)cc2)c1 | 94 to 96 °C
CC(=O)OCc1nnc(N)s1 | 191 to 192 °C
COc1cc(-c2ccccc2)c(C)cc1CC(=O)O | 127 to 128 °C
Cc1c(-c2ccccc2)nnc(N(C)C)c1C | 86 to 89 °C
Cc1nc2cc(NC(=O)c3cc4cccnc4n3Cc3ccncc3)ccc2n1C | 236 to 246 °C
Cc1cc2c(c3c1NC(=O)CC3)OC(CN)C2 (centres undefined) | > 300 °C
CC(C)(C)c1ccc(N2C(=O)CCC2=O)c([N+](=O)[O-])c1 | 135 to 138 °C
CCOC(=O)C(=Cc1ccc(NC)cc1[N+](=O)[O-])C(=O)OCC | 113 to 114 °C
O=C1Cc2c(OCc3ccccc3)cc(OCc3ccccc3)cc2O[C@@H]1c1ccc(OCc2ccccc2)c(OCc2ccccc2)c1 | 144 °C
